{"source": "patent US20080139578A1", "about": "“Substituted piperizines for the treatment of pain” (priority 2006, published 2008)", "type_in_all_cases": "in vivo", "key": {"[1]": {"system": "rats (Sprague-Dawley, Harlan)", "test": "Spared Nerve Ligation (SNL)-induced allodynia model (von Frey filaments)", "conditions": "rat SNL model", "description": "For the neuropathic pain model, rats (Sprague-Dawley, Harlan) were anesthetized with isoflurane and were placed on a heating pad. Using aseptic techniques, the L5 spinal nerve was exposed and ligated. Muscle and skin were closed with 4-0 Polydiaxone and wound clips, respectively. Animals were tested for allodynia 4 weeks post SNL surgery. Only rats that developed allodynia as defined by a significant decrease in their mechanical threshold using von Frey filaments, were used for evaluating the compound. Tactile allodynia was assessed with calibrated von Frey filaments (Stoelting Co), using an up-down paradigm before and at 2 hr and 44 hr post-compound administration. Data are expressed as % reversal=(post-treatment−post-vehicle)/(pre-SNL threshold−post-vehicle)×100."}, "Male Sprague Dawley rats": {"system": "Male Sprague Dawley rats", "test": "Rodent CFA model of inflammatory pain (mechanical hyperalgesia, Ugo Basile paw pressure)", "conditions": "rat CFA model"}, "[2]": {"system": "Male Sprague-Dawley (Charles River) rats", "test": "Capsaicin-induced allodynia model (von Frey filaments)", "conditions": "rat", "description": "Male Sprague-Dawley (Charles River) rats were habituated to the von Frey stands for 4 hr the day prior to the testing day. Tactile allodynia was assessed using calibrated von Frey filaments (up-down method) before and 30, 60 and 120 min post capsaicin injection. Capsaicin (30 μg in 10 μl) was diluted in Ethanol:Tween80:Saline (20:7:73) and administered into the rat left paw. The test compound is administered P.O. at 3, 10 or 30 mg/kg (4 ml/kg) 30 min prior to capsaicin administration. Data are expressed as % inhibition=(post-treatment−post-vehicle)/(pre-capsaicin threshold−post-vehicle)×100. Statistic analysis: 2-way ANOVA (time and dose) and Bonferroni post-hoc analysis comparing each dose to vehicle."}}, "data": [{"molecule": "O=C(CC(c1ccccc1)c1ccccc1)N1CCNCC1", "note": "[Example 1, 1-(3,3-diphenylpropanoyl)piperazine]", "values": [{"measurement": "maximal percent reversal of allodynia", "setting": "[1]; 3 mg/kg P.O.", "value": 11, "unit": "%"}, {"measurement": "maximal percent reversal of allodynia", "setting": "[1]; 10 mg/kg P.O.", "value": 47, "unit": "%"}, {"measurement": "maximal percent reversal of allodynia", "setting": "[1]; 30 mg/kg P.O.", "value": 47, "unit": "%"}, {"measurement": "reversal of hyperalgesia", "setting": "Male Sprague Dawley rats; 3 mg/kg P.O., 3 hr post-dose", "value": 17, "unit": "%"}, {"measurement": "reversal of hyperalgesia", "setting": "Male Sprague Dawley rats; 3 mg/kg P.O., one hour post-dose", "value": 26, "unit": "%"}, {"measurement": "reversal of hyperalgesia", "setting": "Male Sprague Dawley rats; 10 mg/kg P.O., 3 hr post-dose", "value": 39, "unit": "%"}, {"measurement": "reversal of hyperalgesia", "setting": "Male Sprague Dawley rats; 10 mg/kg P.O., one hour post-dose", "value": 43, "unit": "%"}, {"measurement": "reversal of hyperalgesia", "setting": "Male Sprague Dawley rats; 30 mg/kg P.O., 3 hr post-dose", "value": 44, "unit": "%"}, {"measurement": "reversal of hyperalgesia", "setting": "Male Sprague Dawley rats; 30 mg/kg P.O., one hour post-dose", "value": 63, "unit": "%"}, {"measurement": "maximal percent inhibition of allodynia", "setting": "[2]; 3 mg/kg P.O. 30 min before capsaicin challenge", "value": 33, "unit": "%"}, {"measurement": "maximal percent inhibition of allodynia", "setting": "[2]; 10 mg/kg P.O. 30 min before capsaicin challenge", "value": 46, "unit": "%"}, {"measurement": "maximal percent inhibition of allodynia", "setting": "[2]; 30 mg/kg P.O. 30 min before capsaicin challenge", "value": 89, "unit": "%"}]}]}
